The source of these data is patent US20260285875A1, “INHIBITORS OF PARG” (858 Therapeutics, Inc., priority 2023, published 2026).

The assay concerns the target T1, cellular PARG (Homo sapiens, UniProt Q86W56).
T1 construct: endogenous in cells; host or cells: HeLa
The experiment in a line: Nuclear PAR accumulation assay (immunofluorescence high-content imaging, MMS-treated HeLa cells). In kind it is cell-based. The settings on record: 1 hour compound then MMS 50 μg/mL for an additional hour. Summed up:
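HeLa cells pretreated with compound for 1 h at 37° C, then given 50 μg/mL MMS for another hour. After methanol fixation, PAR was immunostained with DAPI nuclear counterstain; per-nucleus intensity and percent PAR-positive cells were imaged at 20× (≥1,000 cells/well). IC50 from four-parameter logistic fit.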

T1 sequence (Q86W56 whole entry): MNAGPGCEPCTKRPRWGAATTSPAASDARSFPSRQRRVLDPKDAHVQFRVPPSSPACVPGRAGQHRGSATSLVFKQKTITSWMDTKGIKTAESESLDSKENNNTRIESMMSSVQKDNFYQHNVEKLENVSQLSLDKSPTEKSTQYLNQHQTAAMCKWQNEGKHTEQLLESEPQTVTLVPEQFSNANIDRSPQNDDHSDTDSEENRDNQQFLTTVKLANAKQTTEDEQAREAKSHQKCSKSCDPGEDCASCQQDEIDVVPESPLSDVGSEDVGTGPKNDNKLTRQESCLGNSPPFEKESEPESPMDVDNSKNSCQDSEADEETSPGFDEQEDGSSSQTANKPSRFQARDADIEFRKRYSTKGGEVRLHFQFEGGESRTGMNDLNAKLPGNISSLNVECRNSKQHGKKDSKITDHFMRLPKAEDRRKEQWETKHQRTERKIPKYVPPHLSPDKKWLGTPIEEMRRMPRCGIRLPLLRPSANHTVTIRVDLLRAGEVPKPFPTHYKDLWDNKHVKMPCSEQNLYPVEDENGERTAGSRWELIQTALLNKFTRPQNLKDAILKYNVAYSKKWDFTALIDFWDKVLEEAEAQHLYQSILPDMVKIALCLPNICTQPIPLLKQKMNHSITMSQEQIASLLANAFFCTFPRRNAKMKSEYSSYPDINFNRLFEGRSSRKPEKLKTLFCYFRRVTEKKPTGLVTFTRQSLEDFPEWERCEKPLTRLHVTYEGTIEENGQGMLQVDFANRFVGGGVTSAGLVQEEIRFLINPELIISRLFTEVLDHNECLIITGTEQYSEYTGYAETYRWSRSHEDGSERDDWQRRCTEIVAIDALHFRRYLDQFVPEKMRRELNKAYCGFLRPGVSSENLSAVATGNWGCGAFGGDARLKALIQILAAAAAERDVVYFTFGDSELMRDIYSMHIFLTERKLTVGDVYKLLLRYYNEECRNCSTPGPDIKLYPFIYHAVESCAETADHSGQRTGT

Consider `CC1(NS(=O)(=O)c2ccc3c(c2)N(c2nnc(C(F)F)s2)C2=NOCCN23)CC1` [Example 86, 10-(5-(difluoromethyl)-1,3,4-thiadiazol-2-yl)-N-(1-methylcyclopropyl)-3,4-dihydro-10H-benzo[4,5]imidazo[2,1-c][1,2,4]oxadiazine-8-sulfonamide], for which the IC50 (as a rule, the point on the concentration scale where inhibition reaches its midpoint) was below 100 nM.
As to `Cn1cc(CN2C(=O)c3cc(S(=O)(=O)NC4(C)CC4)ccc3N3C2=NC[C@H]3C#CCN2CCCC2)cn1` [Example 87, (R)-4-((1-methyl-1H-pyrazol-4-yl)methyl)-N-(1-methylcyclopropyl)-5-oxo-1-(3-(pyrrolidin-1-yl)prop-1-yn-1-yl)-1,2,4,5-tetrahydroimidazo[1,2-a]quinazoline-7-sulfonamide], the IC50 was below 100 nM.
Compound `C[C@@H]1CN(c2cc(S(=O)(=O)NC3(C)CC3)cc3c2N2C(=NC[C@H]2C)N(Cc2cnn(C)c2)C3=O)C[C@@H](C)N1` [Example 88, (R)-9-((3R,5R)-3,5-dimethylpiperazin-1-yl)-1-methyl-4-((1-methyl-1H-pyrazol-4-yl)methyl)-N-(1-methylcyclopropyl)-5-oxo-1,2,4,5-tetrahydroimidazo[1,2-a]quinazoline-7-sulfonamide] returned an IC50 below 100 nM.
The result for `Cn1cc(CN2C(=O)c3cc(S(=O)(=O)NC4(C)CC4)ccc3N3C2=NC[C@H]3C#CC2CNC2)cn1` [Example 89, (R)-1-(azetidin-3-ylethynyl)-4-((1-methyl-1H-pyrazol-4-yl)methyl)-N-(1-methylcyclopropyl)-5-oxo-1,2,4,5-tetrahydroimidazo[1,2-a]quinazoline-7-sulfonamide] reads 1000 to 10000 nM; that for `[2H]C([2H])(c1cnn(C)c1)N1C(=O)c2cc(S(=O)(=O)NC3(C)CC3)ccc2N2C1=NC[C@@H]2C#C` [Example 90, (S)-1-ethynyl-4-((1-methyl-1H-pyrazol-4-yl)methyl-d2)-N-(1-methylcyclopropyl)-5-oxo-1,2,4,5-tetrahydroimidazo[1,2-a]quinazoline-7-sulfonamide], 100 to 1000 nM; that for `Cn1cc(C#C[C@H]2CN=C3N(Cc4cnn(C)c4)C(=O)c4cc(S(=O)(=O)NC5(C)CC5)ccc4N32)cn1` [Example 91, (S′)-1-((1-methyl-1H-pyrazol-4-yl)ethynyl)-4-((1-methyl-1H-pyrazol-4-yl)methyl)-N-(1-methylcyclopropyl)-5-oxo-1,2,4,5-tetrahydroimidazo[1,2-a]quinazoline-7-sulfonamide], 100 to 1000 nM.
Compound `[2H]C([2H])(c1cnn(C)c1)N1C(=O)c2cc(S(=O)(=O)NC3(C)CC3)cc(Cl)c2N2C1=NC[C@@H]2C#CC1CC1` [Example 92, (S)-9-chloro-1-(cyclopropylethynyl)-4-((1-methyl-1H-pyrazol-4-yl)methyl-d2)-N-(1-methylcyclopropyl)-5-oxo-1,2,4,5-tetrahydroimidazo[1,2-a]quinazoline-7-sulfonamide] displayed an IC50 of 100 to 1000 nM.
With `Cn1cc(CN2C(=O)c3cc(S(=O)(=O)NC4(C)CC4)ccc3N3C2=NC[C@@H]3C2CCCC2)cn1` [Example 93, (S)-1-cyclopentyl-4-((1-methyl-1H-pyrazol-4-yl)methyl)-N-(1-methylcyclopropyl)-5-oxo-1,2,4,5-tetrahydroimidazo[1,2-a]quinazoline-7-sulfonamide] the figure was 100 to 1000 nM; with `C#C[C@H]1CN=C2N(Cc3cnn(C)c3)C(=O)c3cc(S(=O)(=O)NC4(C)CC4)cc(Br)c3N21` [Example 94, (S)-9-bromo-1-ethynyl-4-((1-methyl-1H-pyrazol-4-yl)methyl)-N-(1-methylcyclopropyl)-5-oxo-1,2,4,5-tetrahydroimidazo[1,2-a]quinazoline-7-sulfonamide], 100 to 1000 nM.
The result for `[2H]C([2H])(c1cnn(C)c1)N1C(=O)c2cc(S(=O)(=O)NC3(C)CC3)cc(Br)c2N2C1=NC[C@@H]2C#CC1CC1` [Example 95, (S)-9-bromo-1-(cyclopropylethynyl)-4-((1-methyl-1H-pyrazol-4-yl)methyl-d2)-N-(1-methylcyclopropyl)-5-oxo-1,2,4,5-tetrahydroimidazo[1,2-a]quinazoline-7-sulfonamide] reads 100 to 1000 nM.
Compound `[2H]C([2H])(c1cnn(C)c1)N1C(=O)c2cc(S(=O)(=O)NC3(C)CC3)ccc2N2C1=NC[C@H]2C#CCC(C)C` [Example 96, (R)-4-((1-methyl-1H-pyrazol-4-yl)methyl-d2)-N-(1-methylcyclopropyl)-1-(4-methylpent-1-yn-1-yl)-5-oxo-1,2,4,5-tetrahydroimidazo[1,2-a]quinazoline-7-sulfonamide] returned an IC50 below 100 nM.
In turn, `[2H]C([2H])(c1cnn(C)c1)N1C(=O)c2cc(S(=O)(=O)NC3(C)CC3)ccc2N2C1=NC[C@H]2C#Cc1cnn(C)c1` [Example 97, (R)-1-((1-methyl-1H-pyrazol-4-yl)ethynyl)-4-((1-methyl-1H-pyrazol-4-yl)methyl-d2)-N-(1-methylcyclopropyl)-5-oxo-1,2,4,5-tetrahydroimidazo[1,2-a]quinazoline-7-sulfonamide] showed an IC50 below 100 nM.
Compound `[2H]C([2H])(c1cnn(C)c1)N1C(=O)c2cc(S(=O)(=O)NC3(C)CC3)cc(Br)c2N2C1=NC[C@H]2C#C` [Example 98, (R)-9-bromo-1-ethynyl-4-((1-methyl-1H-pyrazol-4-yl)methyl-d2)-N-(1-methylcyclopropyl)-5-oxo-1,2,4,5-tetrahydroimidazo[1,2-a]quinazoline-7-sulfonamide] returned an IC50 below 100 nM.
Compound `Cn1cc(CN2C(=O)c3cc(S(=O)(=O)NC4(C)CC4)ccc3N3C2=NC[C@H]3C#CC(F)F)cn1` [Example 99, (R)-1-(3,3-difluoroprop-1-yn-1-yl)-4-((1-methyl-1H-pyrazol-4-yl)methyl)-N-(1-methylcyclopropyl)-5-oxo-1,2,4,5-tetrahydroimidazo[1,2-a]quinazoline-7-sulfonamide] came in with an IC50 below 100 nM.
As for `CN(C)CC#C[C@@H]1CN=C2N(Cc3cnn(C)c3)C(=O)c3cc(S(=O)(=O)NC4(C)CC4)cc(Cl)c3N21` [Example 100, (R)-9-chloro-1-(3-(dimethylamino)prop-1-yn-1-yl)-4-((1-methyl-1H-pyrazol-4-yl)methyl)-N-(1-methylcyclopropyl)-5-oxo-1,2,4,5-tetrahydroimidazo[1,2-a]quinazoline-7-sulfonamide], the IC50 was below 100 nM.
The result for `[2H]C([2H])(c1cnn(C)c1)N1C(=O)c2cc(S(=O)(=O)NC3(C)CC3)ccc2N2C1=NC[C@H]2C#Cc1cn(C)nc1F` [Example 101, (R)-1-((3-fluoro-1-methyl-1H-pyrazol-4-yl)ethynyl)-4-((1-methyl-1H-pyrazol-4-yl)methyl-d2)-N-(1-methylcyclopropyl)-5-oxo-1,2,4,5-tetrahydroimidazo[1,2-a]quinazoline-7-sulfonamide] reads below 100 nM; that for `Cn1cc(CN2C(=O)c3cc(S(=O)(=O)NC4(C)CC4)cc(Cl)c3N3C2=NC[C@H]3C#CCN)cn1` [Example 103, (R)-1-(3-aminoprop-1-yn-1-yl)-9-chloro-4-((1-methyl-1H-pyrazol-4-yl)methyl)-N-(1-methylcyclopropyl)-5-oxo-1,2,4,5-tetrahydroimidazo[1,2-a]quinazoline-7-sulfonamide], 100 to 1000 nM.
For the compound `[2H]C([2H])(c1cnn(C)c1)N1C(=O)c2cc(S(=O)(=O)NC3(C)CC3)ccc2N2C1=NC[C@H]2C#Cc1cccc(N)n1` [Example 104, (R)-1-((6-aminopyridin-2-yl)ethynyl)-4-((1-methyl-1H-pyrazol-4-yl)methyl-d2)-N-(1-methylcyclopropyl)-5-oxo-1,2,4,5-tetrahydroimidazo[1,2-a]quinazoline-7-sulfonamide], the half-inhibitory concentration (IC50) is below 100 nM.
With `[2H]C([2H])(c1cnn(C)c1)N1C(=O)c2cc(S(=O)(=O)NC3(C)CC3)ccc2N2C1=NC[C@H]2C#CC(C)(C)N` [Example 105, (R)-1-(3-amino-3-methylbut-1-yn-1-yl)-4-((1-methyl-1H-pyrazol-4-yl)methyl-d2)-N-(1-methylcyclopropyl)-5-oxo-1,2,4,5-tetrahydroimidazo[1,2-a]quinazoline-7-sulfonamide] the figure was 100 to 1000 nM.
`[2H]C([2H])(c1cnn(C)c1)N1C(=O)c2cc(S(=O)(=O)NC3(C)CC3)ccc2N2C1=N[C@H]1CNC[C@H]12` [Example 106, (7aS,10aR)-6-((1-methyl-1H-pyrazol-4-yl)methyl-d2)-N-(1-methylcyclopropyl)-5-oxo-6,7a,8,9,10,10a-hexahydro-5H-pyrrolo[3′,4′:4,5]imidazo[1,2-a]quinazoline-3-sulfonamide] came in with an IC50 of 100 to 1000 nM.
The result for `Cc1cc([C@@H]2CN=C3N(Cc4cnn(C)c4)C(=O)c4cc(S(=O)(=O)NC5(C)CC5)ccc4N32)on1` [Example 107, (S)-4-((1-methyl-1H-pyrazol-4-yl)methyl)-N-(1-methylcyclopropyl)-1-(3-methylisoxazol-5-yl)-5-oxo-1,2,4,5-tetrahydroimidazo[1,2-a]quinazoline-7-sulfonamide] reads below 100 nM; that for `[2H]C([2H])(c1cnn(C)c1)N1C(=O)c2cc(S(=O)(=O)NC3(C)CC3)ccc2N2C1=NC[C@H]2COc1cnn(C)c1` [Example 108, (S)-4-((1-methyl-1H-pyrazol-4-yl)methyl-d2)-1-(((1-methyl-1H-pyrazol-4-yl)oxy)methyl)-N-(1-methylcyclopropyl)-5-oxo-1,2,4,5-tetrahydroimidazo[1,2-a]quinazoline-7-sulfonamide], below 100 nM.
For `[2H]C([2H])(c1cnn(C)c1)N1C(=O)c2cc(S(=O)(=O)NC3(C)CC3)ccc2N2C1=NCC21CC(CN(C)C)C1` (stereo not drawn) [Example 109, 3-((dimethylamino)methyl)-4′-((1-methyl-1H-pyrazol-4-yl)methyl-d2)-N-(1-methylcyclopropyl)-5′-oxo-4′,5′-dihydro-2′H-spiro[cyclobutane-1,1′-imidazo[1,2-a]quinazoline]-7′-sulfonamide], the IC50 was in the range of 100 to 1000 nM.
With `[2H]C([2H])(c1cnn(C)c1)N1C(=O)c2cc(S(=O)(=O)NC3(C)CC3)ccc2N2C1=NC[C@H]2COc1ccccn1` [Example 110, (S)-4-((1-methyl-1H-pyrazol-4-yl)methyl-d2)-N-(1-methylcyclopropyl)-5-oxo-1-((pyridin-2-yloxy)methyl)-1,2,4,5-tetrahydroimidazo[1,2-a]quinazoline-7-sulfonamide], the IC50 is below 100 nM.
